Our source for the EC50 and CC50 values is patent publication US20230203004A1, “RSV INHIBITING 3-SUBSTITUTED QUINOLINE AND CINNOLINE DERIVATIVES” (Janssen Sciences Ireland Unlimited Company, priority 2020, published 2023).

In series [1] the test system is rgRSV224 virus. In words: Antiviral activity: rgRSV224 (GFP) replication in HeLa cells. In kind it is cell-based, respiratory syncytial virus (RSV). The following applies: human respiratory syncytial virus, HeLa, 72 h, read-out: RSV HELA EC50, HeLa cells, rgRSV224 MOI = 1, GFP expression three days post-virus exposure; averaged data of several repeat experiments. As to the method: (§1) Black 384-well clear-bottom microtiter plates (Corning, Amsterdam, The Netherlands) were filled via acoustic drop ejection using the echo liquid handler (Labcyte, Sunnyvale, California). 200 nL of compound stock solutions (100% DMSO) were transferred to the assay plates. 9 serial 4-fold dilutions of compound were made, creating per quadrant the same compound concentration. The assay was initiated by adding 10 µL of culture medium to each well (RPMI medium without phenol red, 10% FBS-heat inactivated, 0.04% gentamycin (50 mg/mL). All addition steps are done by using a multidrop dispenser (Thermo Scientific, Erembodegem, Belgium). Next, rgRSV224 virus (MOI = 1) diluted in culture medium was added to the plates. rgRSV224 virus is an engineered virus that includes an additional GFP gene (Hallak LK, Spillmann D, Collins PL, Peeples ME. Glycosaminoglycan sulfation requirements for respiratory syncytial virus infection; Journal of virology (2000), 74(22), 10508-13) and was in-licensed from the NIH (Bethesda, MD, USA). Finally, 20 µL of a HeLa cell suspension (3,000 cells/well) were plated. Medium, virus- and mock-infected controls were included in each test. The wells contain […] DMSO per volume. Cells were incubated at 37° C. in a 5% CO2 atmosphere. Three days post-virus exposure, viral replication was quantified by measuring GFP expression in the cells by an in house developed MSM laser microscope (Tibotec, Beerse, Belgium). The EC50 was defined as the 50% inhibitory concentration for GFP expression. In parallel, compounds were incubated for three days in a set of white 384-well microtiter plates (Corning) and the cytotoxicity of compounds in HeLa cells was determined by measuring the ATP content of the cells using the ATPlite kit (Perkin Elmer, Zaventem, Belgium) according to the manufacturer’s instructions. The CC50 was defined as the 50% concentration for cytotoxicity.

A short description of series [2]: Cytotoxicity in HeLa cells (ATP content, ATPlite kit). In kind it is cell-based. Conditions: human, TOX HELA CC50. On the procedure: as §1
On the technique in general: In ATP-based viability assays light output follows the ATP content of the culture.

Consider `[2H]C([2H])([2H])c1cc2cc(C(=O)NC[C@](O)(c3cc(C(C)(C)O)c(F)c(-c4ccc(F)cc4)n3)C(F)(F)F)cc(OC)c2nn1` [compound 311, (-)Methoxy-3-(Methyl-d3)-N-(3,3,3-Trifluoro-2-(5-Fluoro-6-(4-Fluorophenyl)-4-(2-Hydroxypropan-2-yl)Pyridin-2-yl)-2-Hydroxypropyl)Cinnoline-6-Carboxamide], for which the EC50 in series [1] turned out to be 0.0013 µM. Half-maximal cytotoxicity in series [2] (CC50 at 3 days) was put at 42 µM.
`COc1cc(C(=O)NC[C@](O)(c2cc(C(C)(C)O)c(F)c(-c3ccc(F)cc3)n2)C2CC2(C)C)cc2cc(C)nnc12` (single isomer, unassigned) [compound 294, N-((-)(2,2-dimethylcyclopropyl)(5-fluoro-6-(4-fluorophenyl)-4-(2-hydroxypropanyl)pyndmyl)hydroxyethyl)-8-methoxy-3-methylcmnoline-6-carboxamide]: the half-maximal effective concentration (EC50) in series [1] was 0.0049 µM. It took 13 µM to reach half-maximal cytotoxicity in series [2] (CC50 at 3 days).
On the same counts, the results for `COc1cc(C(=O)NC[C@@](O)(c2cc(C(C)(C)O)cc(-c3ccc(F)cc3)n2)C2CC2)cc2cc(C)nnc12` [compound 305] are 0.642 µM and 41 µM.
On the same counts, the results for `COc1cc(C(=O)NC[C@](O)(c2cc(C(C)(C)O)c(Cl)c(-c3ccc(F)cc3)n2)C(F)(F)F)cc2cc(C(F)F)cnc12` [compound 327, (-)(Difluoromethyl)-8-Methoxy-N-(3,3,3-Trifluoro-2-(5-Chloro-6-(4-Fluorophenyl)-4-(2-Hydroxypropan-2-yl)Pyridin-2-yl)-2-Hydroxypropyl)Quinoline-6-Carboxamide] are 0.0095 µM and 15 µM.
On the same counts, the results for `COc1cc(C(=O)NC[C@@](O)(c2cc(C(C)(C)O)c(F)c(-c3ccc(F)cc3)n2)C(C)(F)F)cc2cc(C)nnc12` [compound 314, (+)-N-(3,3-difluoro-2-(5-fluoro-6-(4-fluorophenyl)-4-(2-hydroxypropan-2-yl)pyridin-2-yl)-2-hydroxybutyl)-8-methoxy-3-methylcinnoline-6-carboxamide] are 0.168 µM and 35 µM.
For the molecule `COc1cc(C(=O)NC[C@](O)(c2cc(C(C)(C)O)c(F)c(-c3ccc(F)cc3)n2)C(C)C)cc2cc(C(F)F)nnc12` [compound 285, (S)(Difluoromethyl)-N-(2-(5-Fluoro-6-(4-Fluorophenyl)-4-(2-Hydroxypropan-2-yl)Pyridin-2-yl)-2-HydroxyMethylbutyl)-8-Methoxycinnoline-6-Carboxamide], the half-maximal effective concentration (EC50) in series [1] worked out at 0.0065 µM. This molecule also returned a CC50 at 3 days in series [2] of 16 µM.
On the same counts, the results for `Cc1cnc2c(OC3CC3)cc(C(=O)NC[C@](O)(c3cc(C(C)(C)O)c(Cl)c(-c4ccc(F)cc4)n3)C(F)(F)F)cc2c1` [compound 219, (-)-N-{2-[5-Chloro-6-(4-Fluorophenyl)-4-(2-Hydroxypropan-2-yl)Pyridin-2-yl]-3,3,3-Trifluoro-2-Hydroxypropyl}-8-(Cyclopropyloxy)-3-Methylquinoline-6-Carboxamide] are 0.005 µM and 27 µM.
Turning to `COc1cc(C(=O)NC[C@](O)(c2nc(-c3ccc(F)cc3)c(F)c(C(C)(C)O)c2F)C2CC2)cc2cc(C(F)F)nnc12` [compound 287], the 50% effective concentration (EC50) in series [1] was determined as 0.0089 µM. The same molecule registered a CC50 at 3 days in series [2] of 37 µM.
On the same counts, the results for `COc1cc(C(=O)NC[C@](O)(c2cc(C(C)(C)O)c(Cl)c(-c3ccc(F)cc3)n2)C2CC2)cc2cc(C(F)F)nnc12` [compound 268, N-{(-)[5-Chloro-6-(4-Fluorophenyl)-4-(2-Hydroxypropanyl)Pyridinyl]CyclopropylHydroxyethyl}-3-(Difluoromethyl)-8-Methoxycinnoline-6-Carboxamide] are 0.00067 µM and 18 µM.

What is called EC50 is the concentration that produces a half-maximal response. The term CC50 denotes the concentration that lowers cell viability or growth by half.
